Reference: patent publication US12605384B2, “Uses” (INTRA-CELLULAR THERAPIES, INC., priority 2018, dated 2026)
Counter-ions that a name gives are not always drawn.

Experiments:
[1] = Plasma Compound 1 levels in dogs (LC/MS-MS); assay type: in vivo, dog; conditions: normal dogs, 0.1 mg/kg i.v.
Experimental: (§1) Dogs are studied in the conscious state before and after inducing dilated cardiomyopathy by tachypacing for two weeks at 200 bpm.
(§2) The study employs two doses, 0.01 and 0.1 mg/kg, the latter administered 30 minutes after the first.
Intravenous blood is placed in K2EDTA tubes, centrifuged at 2,000 g for 15 min, plasma decanted, and stored frozen. Compound 1 levels are assessed by a rapid, sensitive liquid chromatography-tandem mass spectrometric (LC/MS-MS) method.
The mobile phase consists of a gradient of 60-100% methanol over 4.5 minutes in 5 mM ammonium bicarbonate with 0.2% NH3H2O, pumped at a flow rate of 0.8 mL/min. Analysis time is 4.5 min and both the analyte and internal standard eluted around 2.0 min. Multiple reactions monitoring (MRM) mode is used to detect Compound 1. MS is operated in the positive ion detection mode. […] Calibration curves are linear from 0.02-500 ng/mL in dog plasma sample matrices. The lower limit of quantification (LLOQ) for plasma was 0.02 ng/mL.

[2] = tested on: normal and failing canine hearts; assay: Conscious pressure-volume hemodynamic analysis in dogs; assay type: in vivo, dog
Experimental: as §1, §2
Load insensitive indexes of contractility (dP/dtmax/IP and PRSW) increased.

plasma cAMP and cGMP = assay: Plasma cAMP and cGMP by ELISA in dogs; assay type: in vivo, dog; conditions: for plasma cGMP: normal and HF models, all conditions
Experimental: Blood plasma is obtained from these animals, and cAMP and cGMP are assayed by ELISA.

[3] = tested on: New Zealand White rabbits; assay: Pressure-volume hemodynamics in anesthetized rabbits; assay type: in vivo, rabbit; conditions: for hemodynamic effects: atrially paced
Description: Cyclic AMP is generated largely by transmembrane adenylyl cyclases activated via stimulatory G protein (Gs), with β-adrenergic, adenosine (primarily […]), glucagon, prostanoids, histamine, and serotonin all coupling to Gs in cardiomyocytes. The present studies focus on beta-adrenergic and adenosine receptors, and for the latter, concentrated on the A2B receptor, which has been reported to directly stimulate cAMP-dependent contractility. […] Relaxation changes are also modest with LV preload (end-diastolic and volume) unaltered; however, the combined vasodilator-inotropic response doubled ventricular/arterial coupling ratio, Ees/Ea.
New Zealand White rabbits (male, 2-3 kg) are sedated with 35 mg/kg ketamine and 5 mg/kg xylazine, intubated and ventilated (Model 683, Harvard Apparatus, Holliston, MA), with anesthesia maintained with isoflurane inhalation (1-2%). A pressure-volume catheter (SPR-894, Millar, Inc., Houston, TX) is inserted via the common carotid artery and advanced to the LV apex, and a 2-Fr pacing catheter is positioned in the right atrium via the right jugular vein to provide atrial pacing. […] The parallel conductance is determined by the hypertonic saline injection method. Rabbits are infused with 6% hetastarch in saline during the procedure to stabilize arterial pressure.

[4] = tested on: normal adult rabbit myocytes; assay: Contraction and calcium transients in isolated rabbit cardiomyocytes; assay type: cell-based; set-up: effect on contraction and calcium transients: dose or concentration left out as unconfirmed
Experimental: To test whether PDE1 inhibition directly impacts cardiomyocyte contraction and calcium transients, studies are carried out on normal adult rabbit myocytes. […] As PDE1 requires sufficient cAMP and Ca^2+ to be impactful, a dose response was performed to the adenylate cyclase activator, forskolin (FSK) to determine the lowest dose producing a modest but significant inotropic effect (1 μM).
Rabbit myocytes were isolated to determine the effect of PDE1 inhibition on cardiomyocyte contraction and whole cell Ca2+ transients, and to compare the results to those with a PDE3 inhibitor, cilostamide (Cil, 1 μM).

myocyte cAMP = assay: Whole cell cAMP in rabbit myocytes; assay type: cell-based; conditions: for cAMP: added to Fsk; for whole cell cAMP: alone or combined with Iso
Description: This is consistent with prior studies showing locally generated cAMP from β-AR and its modulation by PDE3 occur in local subcellular domains that are not easily detected in whole cell lysates32.

[5] = tested on: patients with stable chronic systolic HF; assay: Phase Ib/IIa single ascending dose study in human heart failure; assay type: in vivo
Experimental: (§3) A further group was administered placebo.
(§4) Hemodynamic monitoring began 30-60 minutes prior to the pre-dose echocardiogram through to 5-6 hours post-dose.
Supine and orthostatic blood pressure and heart rate were recorded pre-dose, as well as 60 and 40 minutes post-dose. Continuous electrocardiographic monitoring starting up to 30-60 minutes prior to the pre-dose echocardiogram through to 5-6 hours post-dose including measurement of ectopic arrhythmias pre- and post-dose.

[6] = Plasma pharmacokinetics in heart failure patients; assay type: in vivo, human; conditions: 10, 30, 90 mg
Experimental: as §3, §4

[7] = Compound 1 added after FSK 1 μM
[8] = continuous ECG monitoring to 5-6 hours post-dose

CN1C(=O)c2c(nn(Cc3ccc(-c4cccc(F)n4)cc3)c2Nc2ccccc2)N2C1=N[C@@H]1CCC[C@@H]12 [Compound 1, (6aR,9aS)-2-(4-(6-fluoropyridin-2-yl)benzyl)-5-methyl-3-(phenyl-amino)-5,6a,7,8,9,9a-hexahydrocyclopenta-[4,5]imidazo[1,2-a]pyrazolo[4,3-e]pyrimidin-4-(2H)-one monophosphate]
time of peak plasma concentration [1]: within minutes
hemodynamic responses ([2]; 0.1 mg/kg i.v.): positive chronotropic, inotropic, lusitropic, and vasodilator responses
inotropy, lusitropy and vasodilation ([2]; i.v., heart failure dogs): remained significantly improved
plasma cAMP (plasma cAMP and cGMP; HF dogs, combination of dobutamine and Compound 1): significantly higher
plasma cGMP (plasma cAMP and cGMP): remains unchanged
LV preload ([3]; 0.1 mg/kg i.v. bolus, alone): unaltered
cardiac output ([3]; 0.1 mg/kg i.v. bolus, alone): increases cardiac output
heart rate ([3]; 0.1 mg/kg i.v. bolus, alone): modestly elevated heart rate
relaxation changes ([3]; 0.1 mg/kg i.v. bolus, alone): modest
systemic resistance ([3]; 0.1 mg/kg i.v. bolus, alone): lowered systemic resistance
systolic pressure ([3]; 0.1 mg/kg i.v. bolus, alone): no change in systolic pressure
contractile and vasodilation effects ([3]; after esmolol): remain intact
heart rate ([3]; after esmolol): no longer increases HR
hemodynamic responses ([3]; atrially paced at ~20% above sinus node rate): nearly identical responses
hemodynamic effects ([3]; with MRS-1754): fully blocked by MRS-1754
hemodynamic effects ([3]; with esmolol): unaltered by esmolol
cardiovascular responses to Compound 1 (heart rate, contractility, vasodilation) ([3]; with A2BR blocker MRS-1754): eliminated all of the cardiovascular responses
percent sarcomere shortening, peak-Ca2+ transients and decay kinetics ([4]; Compound 1 1 μM alone): not observed
rise in sarcomere shortening versus time-control ([4]; Compound 1+FSK vs FSK for identical duration): exceeds that with FSK alone
peak calcium transient [4, 7]: remains unaltered
shortening and relaxation/calcium decay rates [4, 7]: significantly increases shortening and relaxation/calcium decay rates
effect on contraction and calcium transients ([4]; Compound 1 alone): no effect
Ca2+ transient decay ([4]; added to Fsk 1 μM): enhanced the Ca2+ decay rate similarly to Cil
peak Ca2+ transient ([4]; added to Fsk 1 μM): no corresponding increase in peak Ca2+ transient
sarcomere shortening ([4]; added to Fsk 1 μM): rose as with Cil
peak-Ca2+ ([4]; added to Iso): no longer significantly different from pre-Iso baseline
sarcomere shortening ([4]; added to Iso): did not change further
cAMP change as share of the maximal change with IBMX added to Fsk (myocyte cAMP; Compound 1 added to Fsk): about half
cAMP (myocyte cAMP): substantially increased by adding Compound 1
systemic vascular resistance ([5]; 30 mg): greatest decrease
effective arterial elastance (Ea) ([5]; 30 mg and 90 mg): decreased
systemic vascular resistance ([5]; all cohorts (10, 30, 90 mg single oral dose)): significantly decrease systemic vascular resistance
mean arterial blood pressure ([5]; all dose amounts, versus placebo): decrease mean arterial blood pressure versus placebo
atrial fibrillation or atrial flutter [5, 8]: none of the patients developed atrial fibrillation or atrial flutter
sustained supraventricular or ventricular tachycardia [5, 8]: no patient developed sustained supraventricular or ventricular tachycardia
ventricular proarrhythmia [5, 8]: no evidence of ventricular proarrhythmia
safety and tolerability ([5]; patients with systolic heart failure (HFrEF)): safe and well tolerated
blood pressures and heart rates ([5]; throughout the testing period): remained stable
area under curve [6]: increasing with dose escalation

CC(C)Cn1c(=O)n(C)c(=O)c2[nH]cnc21 [IBMX, reference compound]
peak calcium transients ([4]; IBMX 100 μM): did not alter peak calcium transients
shortening and contraction/calcium decay rates ([4]; IBMX 100 μM): increased shortening and contraction/calcium decay rates

CCCn1c(=O)c2[nH]c(-c3ccc(OCC(=O)Nc4ccc(C#N)cc4)cc3)nc2n(CCC)c1=O [MRS-1754, reference compound]
impact of inhibitor pre-treatment alone on cardiovascular hemodynamics [3]: Neither inhibitor pre-treatment alone has a significant impact

CN(C(=O)CCCOc1ccc2[nH]c(=O)ccc2c1)C1CCCCC1 [cilostamide, reference compound]
percent sarcomere shortening, peak-Ca2+ transients and decay kinetics ([4]; Cil 1 μM alone): rose and their decay kinetics accelerated
Ca2+ transient decay ([4]; added to Fsk 1 μM): faster decay of the Ca2+ transient
peak Ca2+ transient ([4]; added to Fsk 1 μM): increase
sarcomere shortening ([4]; added to Fsk 1 μM): increase in sarcomere shortening
peak-Ca2+ ([4]; added to Iso): remained elevated over baseline
sarcomere shortening ([4]; added to Iso): further increased sarcomere shortening
cAMP (myocyte cAMP): unaltered by addition of Cil
whole cell cAMP (myocyte cAMP): did not measurably increase whole cell cAMP

CC(CCc1ccc(O)cc1)NCCc1ccc(O)c(O)c1 (stereo not drawn) [dobutamine, reference compound]
PV loop area (stroke work) and contractility ([2]; dobutamine 10 μg/kg/min alone): increased PV loop area
plasma cGMP (plasma cAMP and cGMP): remains unchanged

COC(=O)CCc1ccc(OCC(O)CNC(C)C)cc1 (stereo not drawn) [esmolol, esmolol HCl, reference compound]
cardiac responses to 10 μg/kg/min dobutamine ([3]; esmolol dose as used): effectively blocked cardiac responses
impact of inhibitor pre-treatment alone on cardiovascular hemodynamics [3]: Neither inhibitor pre-treatment alone has a significant impact

CC(C)NCC(O)c1ccc(O)c(O)c1 (stereo not drawn) [isoproterenol, reference compound]
sarcomere shortening and peak Ca2+ ([4]; isoproterenol 50 nM): increases both sarcomere shortening and peak Ca^2+
sarcomere shortening, peak-Ca2+ and relaxation times ([4]; non-saturating dose of isoproterenol): increased sarcomere shortening and peak-Ca^2+, and quickened relaxation times
whole cell cAMP (myocyte cAMP): did not measurably increase whole cell cAMP
